Measurements reported in patent publication US20240002401A1, “IMIDAZOTHIAZOLE COMPOUNDS, PHARMACEUTICAL COMPOSITIONS, AND USES THEREOF” (GUANGZHOU HENOVCOM BIOSCIENCE CO., LTD., priority 2020, published 2024).
pIC50: −log10 of the molar value.

Key:
[1] = Pharmacokinetics test in mice; assay type: in vivo; conditions: male SD mice; for F: absolute bioavailability, oral 5 mg/kg vs intravenous 1 mg/kg; for AUC / half-life: mouse, plasma
Text: Pharmacokinetics Test in Mice
Male SD mice were selected for pharmacokinetics test study, plasma concentration at different time points were quantitatively determined by LC/MS/MS method after the mice were intravenously injected and orally administrated with the compounds to be tested, thereby evaluating pharmacokinetics characteristic of the compounds to be tested in SD mice.
SD mice (free food and drink, 6 to 8 weeks old) were intravenously administrated via a foot injection with a clear solution of the compounds to be tested, alternatively, SD mice (free food and drink, 6 to 8 week old) were intragastrically administrated with a suspension of the compounds to be tested. Blood samples were collected from the tail veins of the mice 0.083, 0.25, 0.5, 1, 2, 4, 6, 8, 10, and 24 hours after administration, and each sampling was 0.15 mL. All collected blood samples were placed into centrifuge tubes with EDTA-K2, turned upside and down to mix the anticoagulant with the blood well. The plasma was separated by centrifugation at 1500 g for 10 min at 4° C. within […]. The plasma sample was transferred into a new centrifuge tube and stored at −90° C. to −60° C. until the analysis was performed. LC-MS/MS was used to measure the blood concentration of the compounds to be tested of the present disclosure, and the pharmacokinetic parameters, as well as absolute bioavailability, were calculated by a non-compartment model in Pharsight Phoenix 8.0 software, as shown in Table 2.

[2] = biological target: ATX (Homo sapiens, UniProt Q13822); assay: Enzyme activity screening in vitro with LPC as substrate (Amplex Red fluorescence); assay type: biochemical; conditions: inhibitory activity against ATX
Text: Analysis In Vitro: LPC was Used as Substrate for Screening Enzyme Activity
Principle: Lysophosphatidylcholine (LPC) as substrate is hydrolyzed by using the activity of lysoPLD enzyme, to produce lysophosphatidic acid (LPA) and choline, which is oxidized to produce H2O2 under the action of choline oxidase. In presence of horse radish peroxidase (HPR), Amplex Red reagent is reacted with H2O2 in a quantitative chemistry ratio of 1 to 1, to produce strong fluorescence products, which are detected by a fluorescent quantitative test.
20 μl of the above mixed solution 1 was added to each hole of an experiment board, […]. The compounds diluted with DMSO were transferred into an experiment board with Echo550. The reaction buffer solution was used for preparing a mixed solution 2 of […] LPC and 400 μM Amplex Red in a final concentration. 20 μl of the above mixed solution 2 was added to each hole of the experiment board. After addition, the experiment board was shook for 30 seconds on a shaker, and incubated for 30 minutes. Envision was used to read the fluorescence signals with an exciting light at 530 nm and emitted light at 590 nm.

[3] = Intravenous injection (1 mg/kg)

| pIC50 [2] | Compound | other results |
| --- | --- | --- |
| 6.30 to 7.00 | CCc1nc2sc(C3CCN(CC(=O)NCC4(O)CC4)CC3)cn2c1N(CC)c1nc(-c2ccc(F)cc2)c(C#N)s1 [Embodiment 15, 2-(4-(5-((5-cyano-4-(4-fluorophenyl)thiazol-2-yl)(ethyl)amino)-6-ethylimidazo[2,1-b]thiazol-2-yl)piperidin-1-yl)-N-((1-hydroxycyclopropyl)methyl)acetamide] |  |
| 7.00 to 11.00 | CCc1nc2sc(C3CCN(CC(=O)NCC4(O)CCC4)CC3)cn2c1N(CC)c1nc(-c2ccc(F)cc2)c(C#N)s1 [Embodiment 16, 2-(4-(5-((5-cyano-4-(4-fluorophenyl)thiazol-2-yl)(ethyl)amino)-6-ethylimidazo[2,1-b]thiazol-2-yl)piperidin-1-yl)-N-((1-hydroxycyclobutyl)methyl) acetamide] |  |
| 6.30 to 7.00 | CCc1nc2sc(C3CCN(CC(=O)NC4CC(F)(F)C4)CC3)cn2c1N(CC)c1nc(-c2ccc(F)cc2)c(C#N)s1 [Embodiment 17, 2-(4-(5-((5-cyano-4-(4-fluorophenyl)thiazol-2-yl)(ethyl)amino)-6-ethylimidazo[2,1-b]thiazol-2-yl)piperidin-1-yl)-N-(3,3-difluorocyclobutyl)acetamide] |  |
| 6.30 to 7.00 | CCc1nc2sc(C3CCN(CC(=O)NCC4CC4)CC3)cn2c1N(CC)c1nc(-c2ccc(F)cc2)c(C#N)s1 [Embodiment 18, 2-(4-(5-((5-cyano-4-(4-fluorophenyl)thiazol-2-yl)(ethyl)amino)-6-ethylimidazo[2,1-b]thiazol-2-yl)piperidin-1-yl)-N-(cyclopropylmethyl)acetamide] |  |
| 7.00 to 11.00 | CCc1nc2sc(C3CCN(CC(=O)NCC4CCC4)CC3)cn2c1N(CC)c1nc(-c2ccc(F)cc2)c(C#N)s1 [Embodiment 19, 2-(4-(5-((5-cyano-4-(4-fluorophenyl)thiazol-2-yl)(ethyl)amino)-6-ethylimidazo[2,1-b]thiazol-2-yl)piperidin-1-yl)-N-(cyclobutylmethyl)acetamide] |  |
| 7.00 to 11.00 | CCc1nc2sc(C3CCN(CC(=O)NC4CCOCC4)CC3)cn2c1N(c1nc(-c2ccc(F)cc2)c(C#N)s1)C(C)C [Embodiment 26, 2-(4-(5-((5-cyano-4-(4-fluorophenyl)thiazol-2-yl)(isopropyl)amino)-6-ethylimidazo[2,1-b]thiazol-2-yl)piperidin-1-yl)-N-(tetrahydro-2H-pyran-4-yl)acetamide] |  |
| 7.00 to 11.00 | CCc1nc2sc(C3CCN(CC(=O)NC4COC4)CC3)cn2c1N(c1nc(-c2ccc(F)cc2)c(C#N)s1)C(C)C [Embodiment 27, 2-(4-(5-((5-cyano-4-(4-fluorophenyl)thiazol-2-yl)(isopropyl)amino)-6-ethylimidazo[2,1-b]thiazol-2-yl)piperidin-1-yl)-N-(oxacyclobut-3-yl)acetamide] |  |

The next lines start with the molecule.

| Compound | pIC50 [2] | other results |
| --- | --- | --- |
| CCc1nc2sc(C3CCN(CC(=O)N4CC(O)C4)CC3)cn2c1N(CC)c1nc(-c2ccc(F)cc2)c(C#N)s1 [Embodiment 1, 2-(ethyl(6-ethyl-2-(1-(2-(3-hydroxyazetidin-1-yl)-2-oxoethyl)piperidin-4-yl)imidazo[2,1-b]thiazol-5-yl)amino)-4-(4-fluorophenyl)thiazole-5-carbonitrile] | 7.00 to 11.00 | F [1]: 70%; AUC [1, 3]: 1.67 µg·h/mL; half-life [1, 3]: 4.18 h; AUC ([1]; Oral administration (5 mg/kg)): 5.8 µg·h/mL; half-life ([1]; Oral administration (5 mg/kg)): 3.21 h |
| CCc1nc2sc(C3CCN(CC(=O)N4CC(O)C4)CC3)cn2c1N(CC1CC1)c1nc(-c2ccc(F)cc2)c(C#N)s1 [Embodiment 2, 2-(cyclopropylmethyl(6-ethyl-2-(1-(2-(3-hydroxyazetidin-1-yl)-2-oxoethyl)piperidin-4-yl)imidazo[2,1-b]thiazol-5-yl)amino)-4-(4-fluorophenyl) thiazole-5-carbonitrile] | 7.00 to 11.00 | F [1]: 54%; AUC [1, 3]: 0.972 µg·h/mL; half-life [1, 3]: 2.84 h; AUC ([1]; Oral administration (5 mg/kg)): 2.72 µg·h/mL; half-life ([1]; Oral administration (5 mg/kg)): 3.63 h |
| CCc1nc2sc(C3CCN(CC(=O)NCCO)CC3)cn2c1N(CC)c1nc(-c2ccc(F)cc2)c(C#N)s1 [Embodiment 3, 2-(4-(5-((5-cyano-4-(4-fluorophenyl)thiazol-2-yl)(ethyl)amino)-6-ethylimidazo[2,1-b]thiazol-2-yl]piperidin-1-yl)-N-(2-hydroxyethyl)acetamide] | 6.30 to 7.00 |  |
| CCc1nc2sc(C3CCN(CC(=O)N(C)CCO)CC3)cn2c1N(CC)c1nc(-c2ccc(F)cc2)c(C#N)s1 [Embodiment 4, 2-(4-(5-((5-cyano-4-(4-fluorophenyl)thiazol-2-yl)(ethyl)amino)-6-ethylimidazo[2,1-b]thiazol-2-yl]piperidin-1-yl)-N-(2-hydroxyethyl)-N-methylacetamide] | 7.00 to 11.00 |  |
| CCc1nc2sc(C3CCN(CC(=O)NC4CC(O)C4)CC3)cn2c1N(CC)c1nc(-c2ccc(F)cc2)c(C#N)s1 (centres unmarked) [Embodiment 5, 2-(4-(5-((5-cyano-4-(4-fluorophenyl)thiazol-2-yl)(ethyl)amino)-6-ethylimidazo[2,1-b]thiazol-2-yl]piperidin-1-yl)-N-(3-hydroxycyclobutyl)acetamide] | 7.00 to 11.00 |  |
| CCc1nc2sc(C3CCN(CC(=O)N4CC(O)C4)CC3)cn2c1N(CC(F)(F)F)c1nc(-c2ccc(F)cc2)c(C#N)s1 [Embodiment 6, 2-((6-ethyl-2-(1-(2-(3-hydroxyazetidin-1-yl)-2-oxoethyl)piperidin-4-yl)imidazo[2,1-b]thiazol-5-yl)(2,2,2,-trifluoroethyl)amino)-4-(4-fluorophenyl)thiazole-5-carbonitrile] | 7.00 to 11.00 |  |
| [2H]C([2H])([2H])C([2H])([2H])N(c1nc(-c2ccc(F)cc2)c(C#N)s1)c1c(CC)nc2sc(C3CCN(CC(=O)N4CC(O)C4)CC3)cn12 [Embodiment 7, 2-((ethyl-d5)(6-ethyl-2-(1-(2-(3-hydroxyazetidin-1-yl)-2-oxoethyl)piperidin-4-yl)imidazo[2,1-b]thiazol-5-yl)amino)-4-(4-fluorophenyl)thiazole-5-carbonitrile] | 7.00 to 11.00 | F [1]: 65%; AUC [1, 3]: 1.48 µg·h/mL; half-life [1, 3]: 3.97 h; AUC ([1]; Oral administration (5 mg/kg)): 4.81 µg·h/mL; half-life ([1]; Oral administration (5 mg/kg)): 2.81 h |
| CCc1nc2sc(C3CCN(CC(=O)NCC(C)(C)O)CC3)cn2c1N(CC)c1nc(-c2ccc(F)cc2)c(C#N)s1 [Embodiment 8, 2-(4-(5-((5-cyano-4-(4-fluorophenyl)thiazol-2-yl)(ethyl)amino)-6-ethylimidazo[2,1-b]thiazol-2-yl)piperidin-1-yl)-N-(2-hydroxy-2-methylpropyl)acetamide] | 7.00 to 11.00 |  |
| CCc1nc2sc(C3CCN(CC(=O)NCC(C)(C)CO)CC3)cn2c1N(CC)c1nc(-c2ccc(F)cc2)c(C#N)s1 [Embodiment 9, 2-(4-(5-((5-cyano-4-(4-fluorophenyl)thiazol-2-yl)(ethyl)amino)-6-ethylimidazo[2,1-b]thiazol-2-yl)piperidin-1-yl)-N-(3-hydroxy-2,2-dimethylpropyl)acetamide] | 7.00 to 11.00 |  |
| CCc1nc2sc(C3CCN(CC(=O)N(C)CCC#N)CC3)cn2c1N(CC)c1nc(-c2ccc(F)cc2)c(C#N)s1 [Embodiment 10, 2-(4-(5-((5-cyano-4-(4-fluorophenyl)thiazol-2-yl)(ethyl)amino)-6-ethylimidazo[2,1-b]thiazol-2-yl)piperidin-1-yl)-N-(2-cyanoethyl)-N-methylacetamide] | 7.00 to 11.00 |  |
| CCc1nc2sc(C3CCN(CC(=O)NC4(CO)CC4)CC3)cn2c1N(CC)c1nc(-c2ccc(F)cc2)c(C#N)s1 [Embodiment 12, 2-(4-(5-((5-cyano-4-(4-fluorophenyl)thiazol-2-yl)(ethyl)amino)-6-ethylimidazo[2,1-b]thiazol-2-yl)piperidin-1-yl)-N-(1-(hydroxymethyl)cyclopropyl)acetamide] | 7.00 to 11.00 |  |
| CCc1nc2sc(C3CCN(CC(=O)NC(C)CO)CC3)cn2c1N(CC)c1nc(-c2ccc(F)cc2)c(C#N)s1 (centres unmarked) [Embodiment 13, 2-(4-(5-((5-cyano-4-(4-fluorophenyl)thiazol-2-yl)(ethyl)amino)-6-ethylimidazo[2,1-b]thiazol-2-yl)piperidin-1-yl)-N-(1-hydroxypropan-2-yl)acetamide] | 6.30 to 7.00 |  |
| CCc1nc2sc(C3CCN(CC(=O)NC(C)(C)CO)CC3)cn2c1N(CC)c1nc(-c2ccc(F)cc2)c(C#N)s1 [Embodiment 14, 2-(4-(5-((5-cyano-4-(4-fluorophenyl)thiazol-2-yl)(ethyl)amino)-6-ethylimidazo[2,1-b]thiazol-2-yl)piperidin-1-yl)-N-(1-hydroxy-2-methylpropan-2-yl)acetamide] | 7.00 to 11.00 |  |
